Conditions: buffer
Description: Typically, such hydrolysis evaluations are carried out at pH 7.5 in phosphate buffer at room temperature and are measured by observing the UV absorption of the maleimide ring.
The half-life of a polymer maleimide can be determined by measuring the concentration of the maleimide-terminated polymer over time using HPLC or by observing the UV absorption of the maleimide ring.
Using HPLC analysis, the rate of hydrolytic degradation of the maleimide ring of several exemplary maleimide-terminated mPEG polymers (average molecular weight 5000 Da) was explored.
The following linkages between the maleimide and the PEG polymer segment were evaluated: amidoethylene (L1-AMDE), amidopentamethylene (L1-AMPE), amidocyclohexylmethyl (L1-MCH), oxybutyl (L3-TEME), oxyhexyl (L3-HEXA), oxyethyl (L3-ET), and oxypropyl (L3-TME).
Hydrolysis studies were conducted on several exemplary stabilized PEG-maleimides as described above in Example 7.

Row | Substance | HALF-LIFE, IN HOURS | Half-life
1 | 1-(N-maleimidomethyl)-4-(methoxypoly(ethylene glycol)propionamidomethyl)cyclohexane | 20.6 h | 
2 | 1-N-maleimidomethyl-3-(methoxypoly(ethylene glycol)propionamidomethyl)cyclohexane | 64.6 h | 
3 | mPEG (5K DA)-propylmaleimide [mPEG-TME-MAL] | 11.5 h | 11.5 h

Source: patent publication US8835556B2, “Hydrolytically stable maleimide-terminated polymers” (priority 2002, dated 2014)
